Results: patent US20070196883A1, “ENZYME” (UNIVERSITY OF DUNDEE, priority 1999, published 2007)
Entries after “also recorded” stand apart in the source; their conditions may differ.

Columns and labels:
[1] = target: T1, GST-PIF/PDK1 complex (Homo sapiens, UniProt O15530); assay: Phosphorylation of GST-PKBα at Ser473 by GST-PIF/PDK1 (P-473 immunoblot); format: biochemical; conditions: lipid 10 μM in PtdCho/PtdSer vesicles, MgATP, 60 min 30° C.
T1 construct: endogenous in cells; host or cells: 293 cells transfected with pEBG2T GST-PIF; endogenous PDK1 co-purified on glutathione-Sepharose
T1 sequence (O15530 whole entry): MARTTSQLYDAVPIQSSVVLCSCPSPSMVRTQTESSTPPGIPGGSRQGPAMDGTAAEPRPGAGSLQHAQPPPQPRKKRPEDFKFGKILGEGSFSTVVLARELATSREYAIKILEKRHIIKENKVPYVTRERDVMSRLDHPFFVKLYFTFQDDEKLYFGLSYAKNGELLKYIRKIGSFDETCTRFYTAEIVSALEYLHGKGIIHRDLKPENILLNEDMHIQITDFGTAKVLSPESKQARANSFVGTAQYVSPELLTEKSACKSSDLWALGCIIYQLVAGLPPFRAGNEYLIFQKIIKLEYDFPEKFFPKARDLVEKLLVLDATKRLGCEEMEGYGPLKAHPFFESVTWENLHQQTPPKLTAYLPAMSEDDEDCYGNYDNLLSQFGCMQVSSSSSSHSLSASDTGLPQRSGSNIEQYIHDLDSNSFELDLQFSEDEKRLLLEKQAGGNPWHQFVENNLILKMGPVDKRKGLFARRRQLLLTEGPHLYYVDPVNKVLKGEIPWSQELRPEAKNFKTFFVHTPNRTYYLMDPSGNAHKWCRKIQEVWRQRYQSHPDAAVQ
T1 sequence (Q16513 908-984 partner): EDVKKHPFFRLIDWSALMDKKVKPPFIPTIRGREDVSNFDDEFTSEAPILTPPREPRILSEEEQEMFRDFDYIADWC
Description: FIG. 5. The ability of GST-PIF to phosphorylate PKBα at Ser473 is dependent upon the presence of PDK1. GST-PIF purified from 293 cells, FIG. 2C (20 μg in 50 μl) was incubated with Protein G-Sepharose (10 μl) conjugated with either no antibody (control), MSK1 antibody A [40] (5 μg, non specific antibody), a PDK1 antibody raised against the whole protein (5 μg) or a PDK1 peptide antibody raised against the 16 C-terminal amino acid residues of PDK1 (5 μg, peptide antibody) in the presence or absence of the PDK1 C-terminal peptide immunogen (0.2 mM) to which this antibody was raised. After incubation on a shaking platform for 60 min at 4° C., the suspension was centrifuged and GST-PIF in the supernatant (2.0 μg) was incubated with GST-PKBα and MgATP for 60 min at 30° C. in the presence or absence of phospholipid vesicles containing 100 μM PtdCho, 100 μM PtdSer, and 10 μM sn-1-stearoyl-2-arachidonoyl-D-PtdIns(3,4,5)P3 (1,2-SAD-PtdIns(3,4,5)P3), or sn-1,2 di-palmitoyl-D-PtdIns(3,4,5)P3 (C16-PtdIns(3,4,5)P3) or sn-1,2 di-palmitoyl-D-PtdIns(3,4)P2 (C16-PtdIns(3,4)P2). The reactions were terminated by making the solutions 1% in SDS, and the samples were subjected to SDS/polyacylamide gel electrophoresis and immunoblotted using the P-Ser473 antibody. Identical results were obtained in 2 separate experiments (B) The wild type and mutant GST-PIF proteins (2.0 μg) used in FIG. 3 were incubated with GST-PKBα and MgATP for 60 min at 30° C. in the presence or absence of lipid vesicles containing 10 μM sn-1-stearoyl-2-arachidonoyl-D-PtdIns(3,4,5)P3 and the degree of phosphorylation of PKBα at Ser473 was established by immunoblotting. Similar results were obtained in 4 separate experiments using 2 different preparations of the wild type and mutant GST-PIF proteins.
FIG. 7. Specificity of phosphoinositide-dependent PIF/PDK1-induced phosphorylation of Thr308 and Ser473 of PKBα. GST-PKBα was incubated for 60 min at 30° C. with GST-PIF purified from 293 cells (which is associated with endogenous PDK1 see FIG. 3) (1.0 μg), MgATP and phospholipid vesicles containing 100 μM PtdCho, 100 μM PtdSer, and various PtdIns lipids (numbered 1-11, see below) all at a final concentration of 10 μM in the assay. In panel A the reactions were terminated by the addition of Triton X100 and the increase in specific activity of GST-S473D-PKBα (U/mg), determined, relative to a control incubation in which GST-PIF was omitted (±SEM for 6 determinations, two independent experiments). The basal activity of GST-S473D-PKBα was 3.5 U/mg. In Panel B the reactions were terminated by making the solutions 1% in SDS, the samples were subjected to SDS/polyacylamide gel electrophoresis and the extent of PKBα phosphorylation was established using the phospho-specific antibody that recognises PKBα phosphorylated at Ser 473. In B the results of 2 separate experiments with different preparations of lipid are shown. Lipid 1, Buffer control; Lipid 2, PtdIns 3P; Lipid 3, n-1,2-dipalmitoyl PtdIns(3,4)P2; Lipid 4, PtdIns(3,5)P2; Lipid 5, PtdIns(4,5)P2; Lipid 6, sn-1,2-dipalmitoyl D-PtdIns(3,4,5)P3; Lipid 7, rac-1,2-dilinoleoyl phosphatidyl D/L-myo-inositol 3,4,5trisphosphate; Lipid 8, sn-1-stearoyl, 2-arachidonoyl D-PtdIns(3,4,5,)P3; Lipid 9, sn-1-stearoyl, 2-arachidonoyl L-PtdIns(3,4,5,)P3; Lipid 10, sn-2-stearoyl, 3-arachidonoyl D-PtdIns(3,4,5,)P3; Lipid 11, sn-2-ste aroyl, 3-arachidonoyl L-PtdIns(3,4,5,)P3.
Phosphorylation of GST-PKBα by incubation with GST-PIF. In experiments in which the phosphorylation of PKBα was determined using the phospho-specific Ser473 PKBα antibodies, the incubations were identical to the Stage 1 described above except that the reactions were terminated by the addition of 1% (by mass) SDS and immunoblotting is carried out as described below. In experiments in which the sites of phosphorylation on PKBα are determined the incubations were identical to the Stage 1 described above except [γ^32P] ATP (1000-2000 cpm/pmol) was used instead of unlabelled ATP. […]

[2] = tested on: PDK1; assay: Activation of GST-ΔPH-PKBα by PDK1 with or without PIF and phosphoinositide; format: biochemical; conditions: for rate at which GST-PIF/PDK1 complex activates GST-ΔPH-PKBα, presence versus absence of lipid: GST-PIF/PDK1 complex purified from 293 cells
Description: FIG. 8. Maximal activation of PKB by PDK1/PIF requires PtdIns(3,4,5)P3 to interact with both PKB and PDK1. […] The basal activity of GST-ΔPH-PKBα was 3.0 U/mg.
Measurement of PKBα activation after incubation with GST-PIF. This assay was carried out in 2 stages, as described previously; briefly, in the first, GST-PKBα was incubated with GST-PIF (or other indicated PDK1 proteins in the presence or absence of peptides) in the presence of MgATP and phospholipid vesicles.
In Stage 1, an 15 μl reaction mixture was set up containing 66.5 mM Tris/HCl pH 7.5, 0.13 mM EGTA, 0.13% (by vol) 2-mercaptoethanol, 3.3 μM PKI, 1.3 μM microcystin-LR, 13.3 mM Mg(Ac)2, 133 μM unlabelled ATP, 0.4 μM GST-PKBA, 133 μM PtdSer, 133 μM PtdCho in the presence or absence of 13.3 μM PtdIns(3,4,5)P3. The assay was initiated by the addition of 5 μl of 0.2 mg/ml GST-PIF (or other indicated proteins or peptides), after incubation for 30 min at 30° C., stage 2 of the assay was initiated by the addition of 30 μl of a mixture made up of Buffer B containing 2.5 μM PKI, 1 μM microcystin-LR, 10 mM Mg(Ac)2, 100 μM [γ^32P]ATP (200-400 cpm/pmol), 100 μM of the peptide RPRTAAF (SEQ ID NO:13) and 1.25% (by vol) Triton X-100. After 10 min at 30° C., the reactions were terminated by spotting the reaction mixture on to P81 phosphocellulose paper. The papers were washed in 75 mM phosphoric acid and analysed as described previously. A control reaction in which GST-PKBα was omitted was taken as the blank and was always less than 5% of the activity measured in the presence of GST-PKBα. The basal GST-PKBα activity is the activity measured in the absence of PDK1. 1 Unit of GST-PKBα activity was that amount of enzyme required to catalyse the phosphorylation of 1 nmol of the peptide RPRTAAF (SEQ ID NO:13) in 1 min. The assays were linear with time up to a final concentration of 3 U/ml of PDK1 activity in the assay.

Compound | phosphorylation of GST-PKBα at Ser473 [1] | rate at which GST-PIF/PDK1 complex activates GST-ΔPH-PKBα, presence versus absence of lipid [2] | further results
CCCCC/C=C\C/C=C\CCCCCCCC(=O)OCC(COP(=O)(O)OC1C(O)C(OP(=O)(O)O)C(OP(=O)(O)O)C(OP(=O)(O)O)C1O)OC(=O)CCCCCCC/C=C\C/C=C\CCCCC (racemic) [Lipid 7, rac-1,2-dilinoleoyl phosphatidyl D/L-myo-inositol 3,4,5-trisphosphate] | may also be effective |  | 
CCCCCCCCCCCCCCCC(=O)OCC(COP(=O)(O)OC1C(O)C(O)C(OP(=O)(O)O)C(OP(=O)(O)O)C1O)OC(=O)CCCCCCCCCCCCCCC (stereo not drawn) [Lipid 3, sn-1,2-dipalmitoyl PtdIns(3,4)P2] | may also be effective | ~4 fold | phosphorylation of GST-PKBα at Ser473 ([1]; listed as PtdIns(3,4)P2): strongly phosphorylated
CCCCCCCCCCCCCCCC(=O)OC[C@H](COP(=O)(O)OC1[C@H](O)[C@H](OP(=O)(O)O)C(OP(=O)(O)O)[C@H](OP(=O)(O)O)[C@H]1O)OC(=O)CCCCCCCCCCCCCCC (stereo partly drawn) [Lipid 6, sn-1,2-dipalmitoyl D-PtdIns(3,4,5)P3] | may also be effective |  | 
CCCCC/C=C\C/C=C\C/C=C\C/C=C\CCCC(=O)O[C@H](COC(=O)CCCCCCCCCCCCCCCCC)COP(=O)(O)O[C@H]1[C@@H](O)[C@H](OP(=O)(O)O)[C@@H](OP(=O)(O)O)[C@H](OP(=O)(O)O)[C@H]1O [Lipid 8, sn-1-stearoyl, 2-arachidonoyl D-PtdIns(3,4,5,)P3] | highly effective; also recorded: may be capable of enhancing | ~4 fold | enhancement of the rate at which PDK1 complexed to PIF activates GST-ΔPH-PKBα ([2]; His-PDK1/GST-PIF*, presence versus absence of lipid): 3 to 4 fold; rate at which His-PDK1 activates GST-ΔPH-PKBα, presence versus absence of lipid ([2]; His-PDK1 alone, no PIF): the same; phosphorylation of GST-PKBα at Ser473 ([1]; listed as PtdIns(3,4,5)P3): strongly phosphorylated
CCCCC/C=C\C/C=C\C/C=C\C/C=C\CCCC(=O)O[C@H](COC(=O)CCCCCCCCCCCCCCCCC)COP(=O)(O)OC1[C@@H](O)[C@H](OP(=O)(O)O)C(OP(=O)(O)O)[C@H](OP(=O)(O)O)[C@H]1O (stereo partly drawn) [Lipid 9, sn-1-stearoyl, 2-arachidonoyl L-PtdIns(3,4,5,)P3] | failed to induce a significant phosphorylation; also recorded: may not induce |  | 
CCCCC/C=C\C/C=C\C/C=C\C/C=C\CCCC(=O)OC[C@@H](COP(=O)(O)O[C@H]1[C@@H](O)[C@H](OP(=O)(O)O)[C@@H](OP(=O)(O)O)[C@H](OP(=O)(O)O)[C@H]1O)OC(=O)CCCCCCCCCCCCCCCCC [Lipid 10, sn-2-stearoyl, 3-arachidonoyl D-PtdIns(3,4,5,)P3] | highly effective; also recorded: may be capable of enhancing |  | 
PtdIns(3,5)P2 [Lipid 4] | did not induce |  | 
PtdIns(4,5)P2 [Lipid 5] | did not induce | do not increase | 
PtdIns-3P [Lipid 2] | did not induce | do not increase | 
sn-2-ste aroyl, 3-arachidonoyl L-PtdIns(3,4,5,)P3 [Lipid 11] | failed to induce a significant phosphorylation; also recorded: may not induce |  | 
